Laboratory results as given in ChEMBL document CHEMBL1124616, “Hybrid cholecystokinin (CCK) antagonists: new implications in the design and modification of CCK antagonists” (J Med Chem, 1989).

Columns and labels:
[1] = molecular target: T1, Cholecystokinin receptor type A (Cavia porcellus, UniProt Q63931); assay: Compound was evaluated for the binding affinity against Cholecystokinin type A receptor in pancreatic acinar cell
T1 sequence (Q63931 whole entry): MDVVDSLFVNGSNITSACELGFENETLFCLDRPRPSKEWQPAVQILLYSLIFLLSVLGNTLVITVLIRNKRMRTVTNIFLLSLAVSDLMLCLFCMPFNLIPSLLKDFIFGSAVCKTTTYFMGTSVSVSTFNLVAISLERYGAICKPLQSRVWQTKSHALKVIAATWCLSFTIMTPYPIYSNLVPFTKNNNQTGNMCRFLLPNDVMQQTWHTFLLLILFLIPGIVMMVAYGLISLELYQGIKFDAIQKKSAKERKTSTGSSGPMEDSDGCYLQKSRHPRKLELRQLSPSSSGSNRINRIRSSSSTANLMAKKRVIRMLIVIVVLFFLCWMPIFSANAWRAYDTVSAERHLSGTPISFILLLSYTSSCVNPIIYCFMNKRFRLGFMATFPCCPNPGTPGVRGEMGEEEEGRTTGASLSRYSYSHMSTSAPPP

[2] = species: Cavia porcellus; assay: Compound was evaluated for the ability to inhibit CCK-stimulated amylase release in pancreatic acinar cells of guinea pig; assay type: functional
[3] = molecular target: T2, Gastrin/cholecystokinin type B receptor (Cavia porcellus, UniProt H0VZC5); assay: Compound was evaluated for the binding affinity against Cholecystokinin type A receptor in cortical cells.; assay type: cell-based
[4] = molecular target: T1, Cholecystokinin receptor type A; assay: Compound was evaluated for the binding affinity against CCK A receptor in pancreatic acinar cell
[5] = molecular target: T2, Gastrin/cholecystokinin type B receptor; assay: Compound was evaluated for the binding affinity against CCK A receptor in cortical cells.; assay type: cell-based

T2 sequence (H0VZC5 1-426): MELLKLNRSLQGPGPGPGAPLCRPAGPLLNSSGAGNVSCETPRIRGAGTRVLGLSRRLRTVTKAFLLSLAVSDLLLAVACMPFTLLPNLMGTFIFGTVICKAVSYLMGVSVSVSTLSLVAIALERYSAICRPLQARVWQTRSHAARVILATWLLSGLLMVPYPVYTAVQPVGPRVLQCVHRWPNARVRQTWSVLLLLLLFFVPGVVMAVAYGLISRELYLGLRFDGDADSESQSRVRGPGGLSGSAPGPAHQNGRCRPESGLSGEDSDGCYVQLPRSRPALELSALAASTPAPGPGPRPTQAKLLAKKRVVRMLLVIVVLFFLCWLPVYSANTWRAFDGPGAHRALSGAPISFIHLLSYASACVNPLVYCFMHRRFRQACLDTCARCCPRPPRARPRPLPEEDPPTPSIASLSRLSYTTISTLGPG

SMILES	IC50 [1]	IC50 [3]	IC50 [4]	IC50 [5]	IC50 [2]
CCCCCN(CCCCC)C(=O)[C@@H](CCC(=O)O)NC(=O)c1cccc2ccccc12	320 nM	11000 nM	–	–	280 nM
CCCCCN(CCCCC)C(=O)[C@@H](CCC(=O)O)NC(=O)c1cc2ccccc2[nH]1	–	–	–	–	36 nM
CCCCCN(CCCCC)C(=O)[C@@H](CCC(=O)O)NC(=O)c1cnc2ccccc2c1	–	–	–	–	16 nM
CCCCCN(CCCCC)C(=O)[C@H](CCC(=O)O)NC(=O)c1cc2ccccc2[nH]1	–	–	–	–	590 nM
CCCCCN(CCCCC)C(=O)[C@@H](CCC(=O)O)NC(=O)c1ccc(Cl)c(Cl)c1	–	–	–	–	180 nM

Now from value to molecule, other results behind:

IC50 [1]	IC50 [3]	IC50 [4]	IC50 [5]	SMILES	IC50 [2]
63 nM	–	–	–	CCCCCN(CCCCC)C(=O)[C@@H](CCC(=O)O)NC(=O)c1ccc2ccccc2n1	–
–	–	4900 nM	–	CCCCCN(CCCCC)C(=O)[C@H](CCC(=O)O)NC(=O)c1ccc(Cl)c(Cl)c1	11000 nM
–	32000 nM	–	–	CCCCCN(CCCCC)C(=O)[C@@H](CCC(=O)O)NC(=O)c1c[nH]c2ccccc12	830 nM
–	–	31 nM	11000 nM	CCCCCN(CCCCC)C(=O)[C@@H](CCC(=O)O)NC(=O)c1ccc2ncccc2c1	65 nM
12 nM	4200 nM	–	–	CCCCCN(CCCCC)C(=O)[C@@H](CCC(=O)O)NC(=O)c1ccc2ccccc2c1 [AMIGLUMIDE]	36 nM
